Measured values reported in US10881663B2, “Method of treating pain in elderly patients with mild renal impairment” (Baudax Bio, Inc., priority 2018, dated 2021).
Entries after “also recorded” stand apart in the source; their conditions may differ. Read-outs that look alike come from different tables or passages of the source.

Key:
[1] = intravenous; Ketorolac Tromethamine Injection Prescribing Information; cited from earlier work
[2] = Single-dose IV meloxicam pharmacokinetics in elderly subjects with mild renal impairment vs healthy controls (Example 3); assay type: in vivo, human; details: single IV dose 30 mg; for AUC(0-6) / AUC(0-t) / AUC(0-inf) / Cmax: iv, 30 mg; for AUC(0-6): AUC0-6 (Mean ± SD), heading: AUC0-6
Procedure: (§1) This study was a single-center, open-label evaluation of the pharmacokinetics and safety, of single doses of meloxicam in elderly subjects with impaired renal function compared with healthy controls. The study enrolled 12 subjects. Eligible subjects were assigned to a study cohort based on their age and renal function. Renal function was assessed using below the equation for estimation of the glomerular filtration rate (GFR).
SCr=serum creatinine measured with a standardized assay.
Enrolled subjects were matched between cohorts according to gender and BMI (±20%).
Enrolled subjects returned to the study center on the day before dosing (Day −1).

[3] = Safety of single IV dose 30 mg meloxicam (Example 3); assay type: in vivo, human
Procedure: as §1, with “(GFR). GFR(mL/min/1.73 m^2)=175×(SCr)^−1.154×(Age)^−0.203×(0.742 if female)×(1.212 if African American)” for “(GFR).”
Enrolled subjects were matched between cohorts according to gender and BMI (±20%). Subjects were assigned to cohorts as follows: • Cohort 1 (n=6; 3 male, 3 female): subjects aged 65 to 80 years with impaired renal function (GFR 60-89 mL/min/1.73 m^2) • Cohort 2 (n=6; 3 male, 3 female): subjects aged 18 to 55 years with normal renal function (GFR≥90 mL/min/1.73 m^2).
Enrolled subjects returned to the study center on the day before dosing (Day −1). During the treatment visit (Day −1 to Day 3), subjects received a single IV dose 30 mg (25 mg/mL) meloxicam. Whole blood samples were collected for pharmacokinetic (PK) analysis prior to dosing and 5, 10, 20, 30, and 45 minutes, and 1, 2, 4, 6, 12, 18, 24, 36, and 48 hours after dosing.
Safety assessments included monitoring of AEs (adverse events), clinical laboratory tests, vital sign measurements, and ECGs. Upon completion of the treatment visit through Hour 48 (Day 3) assessments, the subjects were discharged from the study center.

[4] = Postoperative opioid analgesic use, IV meloxicam 30 mg vs placebo (Example 4); assay type: in vivo, human; details: for reduction in opioid use compared with placebo: 30 mg IV, p<0.05
[5] = Injection site pain reported after intravenous meloxicam; assay type: in vivo, human; details: patients receiving a dose of intravenous meloxicam
[6] = Safety of repeat-dose IV meloxicam 30 mg after major surgery in elderly subjects with impaired renal function (Example 4); details: for tolerability: advanced age

O=C(c1ccccc1)c1ccc2n1CCC2C(=O)O (stereo not drawn) [ketorolac]
onset of pain relief [1]: up to 30 minutes

Cc1cnc(NC(=O)C2=C(O)c3ccccc3S(=O)(=O)N2C)s1 [meloxicam, 4-hydroxy-2-methyl-N-(5-methyl-2-thiazolyl)-2H-1,2-benzothiazine-3-carboxamide-1,1-dioxide]
AUC(0-6) ([2]; both sexes, human, plasma, Cohort 1 (65-80 years, mild renal impairment)): 16100 ± 1700 ng·h/mL | AUC(0-6) ([2]; both sexes, human, plasma, Cohort 2 (18-55 years, normal renal function)): 16300 ± 2170 ng·h/mL | AUC(0-t) ([2]; both sexes, human, plasma, Cohort 1 (65-80 years, mild renal impairment), read-out: AUC0-12 (Mean ± SD)): 26000 ± 2690 ng·h/mL | AUC(0-t) ([2]; both sexes, human, plasma, Cohort 1 (65-80 years, mild renal impairment), read-out: AUC0-24 (Mean ± SD)): 40600 ± 4750 ng·h/mL | AUC(0-t) ([2]; both sexes, human, plasma, Cohort 1 (65-80 years, mild renal impairment), read-out: AUC0-t (Mean ± SD)): 70900 ± 18500 ng·h/mL | AUC(0-inf) ([2]; both sexes, human, plasma, Cohort 1 (65-80 years, mild renal impairment), read-out: AUC0-∞ (Mean ± SD)): 71800 ± 19600 ng·h/mL | AUC(0-t) ([2]; both sexes, human, plasma, Cohort 1 (mild renal impairment), read-out: AUC0-t, Least Square Geometric Mean): 69100 ng·h/mL | AUC(0-inf) ([2]; both sexes, human, plasma, Cohort 1 (mild renal impairment), read-out: AUC0-∞, Least Square Geometric Mean): 69800 ng·h/mL | Cmax ([2]; both sexes, human, plasma, Cohort 1 (mild renal impairment), read-out: Cmax, Least Square Geometric Mean): 5870 ng/mL | Cmax ([2]; both sexes, human, plasma, Cohort 1: aged 65 to 80 years, GFR 60-89 mL/min/1.73 m^2, plasma, read-out: Cmax (Mean ± SD)): 5920 ± 842 ng/mL | AUC(0-t) ([2]; both sexes, human, plasma, Cohort 2 (18-55 years, normal renal function), read-out: AUC0-12 (Mean ± SD)): 26400 ± 3920 ng·h/mL | AUC(0-t) ([2]; both sexes, human, plasma, Cohort 2 (18-55 years, normal renal function), read-out: AUC0-24 (Mean ± SD)): 41000 ± 8670 ng·h/mL | AUC(0-t) ([2]; both sexes, human, plasma, Cohort 2 (18-55 years, normal renal function), read-out: AUC0-t (Mean ± SD)): 67900 ± 22500 ng·h/mL | AUC(0-inf) ([2]; both sexes, human, plasma, Cohort 2 (18-55 years, normal renal function), read-out: AUC0-∞ (Mean ± SD)): 68500 ± 22800 ng·h/mL | AUC(0-t) ([2]; both sexes, human, plasma, Cohort 2 (healthy control), read-out: AUC0-t, Least Square Geometric Mean): 64500 ng·h/mL | AUC(0-inf) ([2]; both sexes, human, plasma, Cohort 2 (healthy control), read-out: AUC0-∞, Least Square Geometric Mean): 65100 ng·h/mL | Cmax ([2]; both sexes, human, plasma, Cohort 2 (healthy control), read-out: Cmax, Least Square Geometric Mean): 5580 ng/mL | Cmax ([2]; both sexes, human, plasma, Cohort 2: aged 18 to 55 years, normal renal function, plasma, read-out: Cmax (Mean ± SD)): 5620 ± 713 ng/mL | Tmax ([2]; both sexes, human, plasma, all subjects (both cohorts)): 4.8 min | AUC0-t, Least Square Geometric Mean Ratio (%) (Cohort 1/Cohort 2) [2]: 107% | AUC0-∞, Least Square Geometric Mean Ratio (%) (Cohort 1/Cohort 2) [2]: 107% | Cmax, Least Square Geometric Mean Ratio (%) (Cohort 1/Cohort 2) [2]: 105% | Tmax, Median (range) ([2]; Cohort 1 (65-80 years, mild renal impairment)): 0.08 (0.08-0.08) h | Tmax, Median (range) ([2]; Cohort 2 (18-55 years, normal renal function)): 0.08 (0.08-0.08) h | infusion or infusion site reactions ([3]; 30 mg as an IV infusion over 17-20 seconds): not associated with any infusion, or infusion site, reactions | intensity of AEs ([3]; single IV dose 30 mg): generally mild or moderate in intensity | vital sign or ECG findings ([3]; single IV dose 30 mg): no clinically significant vital sign or ECG (electrocardiogram) findings | incidence of adverse events (subjects with any event) ([3]; single IV dose 30 mg, all 12 subjects): 33.3% | tolerability ([3]; single IV dose 30 mg, healthy subjects and subjects with mild renal impairment): well tolerated with no incidence of death, SAEs (severe adverse events), or discontinuations due to an AE; also recorded: safe and well tolerated | reduction in opioid use compared with placebo ([4]; Hour 0-24 interval): 42.8% | reduction in opioid use compared with placebo ([4]; Hour 24-48 interval): 41.9% | statistically significant reductions in opioid use compared with placebo ([4]; during treatment, 30 mg IV daily): up to 42.8% | patients who reported injection site pain [5]: 2% | intensity of AEs ([6]; 30 mg IV every 24 hours up to 7 doses): generally mild or moderate in intensity | tolerability ([6]; 30 mg IV every 24 hours up to 7 doses after major surgery, impaired renal function): well tolerated | tolerability ([6]; 30 mg IV every 24 hours up to 7 doses after major surgery, impaired renal function, listed as IV meloxicam): well tolerated with no deaths or discontinuations due to an AE | incidence of SAEs ([6]; 30 mg IV every 24 hours up to 7 doses after major surgery, age 66-80 years, impaired renal function): 2.3% | injection site AEs ([6]; 30 mg IV over 15-30 seconds every 24 hours up to 7 doses): no injection site AEs
